Experimental findings from patent publication US11781984B2, “Fluorescent method to quantify copper or platinum based on catalysis” (University of Pittsburgh—Of the Commonwealth System of …, priority 2018, dated 2023) are described below.

The nature of data set [1]: Kinetic study to determine turnover frequency of copper-mediated depropargylation of PPE. The conditions noted are these: 200 nM Cu^2+, 20 μM PPE, 160 μM DMAPPP. As for the experimental part:
To determine whether this method was a catalytic method, we monitored the reaction over time (FIG. 11). A standard curve was prepared for dichlorofluorescein (DCF) by dissolving the solid in EtOH to a concentration of 20 mM. The DCF was then diluted to 500 μM in EtOH. A stock solution was prepared by adding 500 mM pH 8.5 borate buffer (600 μL), EtOH (81.6 μL), 500 μM DCF in EtOH (32 μL), 20 mM DMAPPP in DMSO (6.4 μL). This stock solution (200 μL) was then transferred to a black 96-well plate.
The diluent was prepared by mixing 500 mM borate pH 8.5 buffer (9.00 mL), EtOH (1.70 mL), and 20 mM DMAPPP in DMSO (96 μL). The diluent (100 μL) was transferred to the black 96-well plate. 2× serial dilutions were performed by removing 100 μL of the stock solution from the wells and adding it to the wells containing the diluent. […] The fluorescence of these solutions was measured and a standard curve was generated.
The working solution was prepared by mixing 500 mM borate pH 8.5 buffer (1.20 mL), EtOH (187 μL), 800 μM PPE in EtOH (40 μL), 20 mM DMAPPP in DMSO (12.8 μL) in a conical tube. […] 0 or 2.0 μM Cu^2+ (20 μL) was then added to the wells and the fluorescence was measured every 5 min for 2 h.
The fluorescence value was converted to a concentration of Pittsburgh Green using the linear regression generated from the standard curve of DCF. The fluorescence vs. time was then plotted.

Data set [2] can be described thus: Fluorescence intensity of Pittsburgh Green versus PPE. The class given is physicochemical. As for the experimental part:
All fluorescence measurements were obtained using a Modulus II Microplate Multimode Reader. Fluorescence was measured after exciting samples with 490 nm light and emission was measured between 510-570 nm. All fluorescence measurements were obtained at room temperature.

The subject of data set [3] is HeLa cells. Put plainly: Fluorescence imaging of copper ions in live HeLa cells. The conditions noted are these: HeLa cells loaded with 1 mM CuSO4, 20 μM PPE, 160 μM DMAPPP, 15 min. The class given is cell-based. As for the experimental part: Finally, we applied our method to imaging cellular pools of copper. HeLa cells were loaded with 1 mM CuSO4 in DMEM for 30 min at 37° C. The cells were washed. PPE and DMAPPP were added during imaging to a final concentration of 20 μM and 160 μM, respectively. Images were obtained on a Nikon Ti microscope equipped with a 60× (1.4 NA) objective.

Data set [4] relates to HeLa cells. Put plainly: Fluorescence imaging of platinum in live HeLa cells. Type of data set: cell-based. The conditions noted are these: 1 μM APE, 200 μM TFPP, 1 mM K2PtCl4, 20 min. As for the experimental part:
We then applied this method for cellular imaging. HeLa cells were seeded in 35-mm dishes and were incubated overnight in an incubator (37° C., 5% CO2 atmosphere) in DMEM supplemented with 10% bovine calf serum and 1% penicillin/streptomycin. Cells were loaded with APE and TFPP to a final concentration of 1 μM and 200 μM, respectively, in 1% DMSO in DMEM for 20 min. Following this, cells were washed twice with ˜2 mL HBSS. HBSS was used as the imaging medium. Brightfield images were taken, as well as the initial fluorescence image. Immediately after taking the first fluorescence image, a solution of K2PtCl4 in PBS was added to a final concentration of 1 mM.
Cellular images were taken using an Olympus IX81 microscope with a 10× objective. Brightfield images were taken using a 3 ms exposure. Fluorescence images were taken as a time series, with an image taken every 30 s for 20 min, using an 850 ms exposure. Images were processed using ImageJ software; background fluorescence was removed from the fluorescence images using a rolling ball radius of 50.0 pixels.

Consider Propargyl Pittsburgh Green ether [PPE], for which, in data set [1] (after one hour), the “concentration of reaction product (Pittsburgh Green) produced” value is “approximately 480 nM”. In addition, the turnover frequency in data set [1] (borate pH 8.5) is recorded as ~2.4 per hour. Moreover, the “ratio of fluorescence intensities Pittsburgh Green fluorophore : PPE” value in data set [2] is 200-400 :1. Besides, in data set [3], the fluorescence within cells entry is “time-dependent increase in fluorescence”.
allyl Pittsburgh Green ether [APE]: the “increase of fluorescence intensity in cells” value in data set [4] was 1.5 fold.
